We go through eight compounds from US6762176B1, “2-aminopyridine derivatives, their use as medicines and pharmaceutical compositions containing them” (Societe de Consells de Recherches et D'Applications …, priority 1998, dated 2004).

Structures can show the parent of a compound that is named as a salt.

`Cc1cc(N)nc(CCCCNC(=O)C2(C)CCc3c(C)c(O)c(C)c(C)c3O2)c1.O=C(O)/C=C/C(=O)O` (centres unmarked) yielded a melting point of 131 to 136 °C. In the case of `Cc1c(C)c2c(c(C)c1O)CCC(C)(C(=O)N1CCN(CCC#Cc3ccc(N)nc3)CC1)O2.Cl` (centres unmarked) it was 210 to 212 °C; in that of `Cc1c(C)c2c(c(C)c1O)CCC(C)(C(=O)N1CCN(CCCCc3ccc(N)nc3)CC1)O2.Cl` (centres unmarked), 221 to 223 °C; in that of `COc1cc(C=CCNCCCCc2cc(C)cc(N)n2)ccc1O` (as salt: hydrochloride) [Example 26, 6-amino-N-[13-(4-hydroxy-3-metboxy-phenyl)-2-propenyl]4-methyl-2-pyridinebutanamine hydrochloride], 60 to 62 °C.

Compound `Cc1cc(N)nc(CCCCNC(=O)c2ccc3c(c2)OCO3)c1.Cl` [Example 23, N-[(6-amino-4-methyl-2-pyridinyl)butyl]-1,3-benzodioxole-5-carboxamide hydrochloride] came in with a melting point of 176 to 178 °C.

`Cc1cc(N)nc(CCCCNCc2ccc3c(c2)OCO3)c1.O=C(O)/C=C/C(=O)O` [Example 29, N-[4-(6-amino-4-methyl-2-pyridinyl)butyl]-N-(1,3-benzodioxole-5-ylmethyl)amine fumarate]: the melting point is 224 to 226 °C. In the case of `Cc1cc(N)nc(CCCCNC/C=C/c2ccccc2)c1.O=C(O)/C=C/C(=O)O` [Example 30, N-[4-(6-amino-4-methyl-2-pyridinyl)butyl]-N-[(E)-3-phenyl-2-propenyl]amine fumarate] it was 163 to 165 °C; in that of `Cc1cc(N)nc(CCCCNC(=O)/C=C/c2ccc3c(c2)OCO3)c1.O=C(O)/C=C/C(=O)O` [Example 31, (E)-N-[4-(6-amino-4-methyl-2-pyridinyl)butyl]-3-(1,3-benzodioxole-5-yl)-2-propenamide fumarate], 111 to 113 °C.

Usually melting point stands for the temperature, or range, at which the solid turns liquid.
